Reference: patent US7094752B2 (Chiron Corporation, priority 1997, dated 2006)
Like-named read-outs stand apart in the source and are kept apart here. Marks after values point to notes of the source that are not given here. Square brackets hold non-standard residues; d marks the D form. Peptide text beside a SMILES is read from it. 1Nal = N[C@@H](Cc1cccc2ccccc12)C(=O)O; 2Nal = N[C@@H](Cc1ccc2ccccc2c1)C(=O)O; Nle = CCCC[C@H](N)C(=O)O; Abu = CC[C@H](N)C(=O)O

Assays:
sUPAR domain 2–3 (D23) = molecular target: T1, sUPAR domain 2–3 (D23) (Homo sapiens, UniProt Q03405); assay: Bacteriophage binding to sUPAR domain 2/3; settings: phage-displayed peptide
T1 construct: domains 2 and 3 (amino acids 93–313); made in house; host or cells: baculovirus infected Sf9 insect cells
Experimental: FIG. 5. Bacteriophage binding to sUPAR domain 2/3. Phage were added to wells containing sUPAR domain 2/3 immobilized by its epitope tag via protein G and monoclonal antibody to the epitope tag. Wells containing protein G and antibody but no domain 2/3 were included to determine nonspecific phage binding. Urea-eluted phage and the input stocks were titered by plaque formation assay. Results were single point determinations calculated as a percent of the input titer and were repeated in three separate experiments.
It was also shown by the inventors that bacteriophage bound to sUPAR domain 2–3fragment. Protein G, 100μl, 1 mg/ml in 50 mM Na2CO3, pH9.6, was added to MaxiSorp wells, incubated overnight at 4° C. and then washed with PBS/BSA. Fifty μl of monoclonal antibody to the epitope tag EYMPME (SEQ ID NO: 18) was added at 1 mg/ml in PBS/BSA and incubated for 2 hours at room temperature. The wells were washed, recombinant sUPAR domain 2–3 (1.7 μM in PBS/BSA) was added and incubated for 1.5 hours at room temperature. The wells were washed prior to the addition of bacteriophage (approximately 10^8 pfu), and then treated as described in the previous section for binding to suPAR.

soluble uPAR [1] = molecular target: T2, soluble uPAR (Homo sapiens, UniProt Q03405)
soluble uPAR [2] = molecular target: T2, soluble uPAR; assay type: binding; design: sUPAR, soluble truncated form of the urokinase receptor; made in house; host or cells: baculovirus-infected Sf9 insect cells; settings: for % Inhibition 2.5 uM: 2500.0; for % Inhibition 5 uM: 5000.0
Experimental: Streptavidin, 100 μl (0.1 mg/ml) in 50 mM Na2CO3, pH 9.6, was added to MaxiSorp wells (Nunc), incubated overnight at 4 C, and then washed with PBS/BSA. Biotinylated sUPAR (25 nM in PBS/BSA) was added to the wells and incubated for 2 hours at room temperature prior to washing. Competitive peptide inhibitors were added to the wells immediately prior to addition of the bacteriophage. The wells were incubated for one hour at room temperature, then washed and bound bacteriophage eluted with 6M urea in 0.1N HCl, pH 2.5. After 15 minutes, the urea eluate was brought to neutral pH by addition of 2M Tris base and the bacteriophage titers of input stocks and elutions measured by plaque formation assay. Results were expressed as the percent of input bacteriophage which bind to the wells. Alternatively, the amount of bacteriophage was determined in an ELISA where phage were preincubated with HRP-conjugated anti-M13 antibody for 30 minutes at room temperature before dispensing into wells prepared as above and incubated for one hour at room temperature. The final anti-M13 conjugate dilution was 1:4000. After washing, TMB substrate (100 μl/well) was added and color development was stopped with 0.8N H2SO4 (100 μl/well). The absorbance at 450 nm was then measured in a 96 well plate reader.
In a uPAR binding assay, the following analogs were tested in a competition with phage displaying either peptide 25 or peptide 9. The analogs comprise both natural and unnatural amino acids.
The analogs were tested in an assay utilizing soluble uPAR, similar to the method described in Example 2. The analogs were tested for their ability to compete with phage displaying either peptide 9 or peptide 25. Analogs 3–61 were tested in competition with peptide 25. Analogs 62–96 were tested in competition with peptide 9. Approximately 10^8 plaque forming units of the phage were used in the assay.
The analogs were tested at a concentration at 40 μM in the uPAR competition assay with phage displaying peptide 25. The results below show which analogs were active.
Analogs 31–61 were tested for their ability to compete with phage displaying peptide 25. The active analogs were tested further at two concentrations, 5 μM and 2.5 μM. These concentrations were calculated based on the synthesis reactions. However, the sequences * were further tested and determined to contain high amounts of amino acids and the quantity tested could have been higher than 5 μM or 2.5 μM.

[3] = molecular target: T3, uPA1–48:uPAR complexes binding to vitronectin (Homo sapiens, UniProt Q03405); assay: Vitronectin binding assay (ELISA); settings: 20 nM biotinylated suPAR, 20 nM uPA1–48
T3 construct: sUPAR, soluble truncated form of the urokinase receptor; made in house; host or cells: suPAR: baculovirus-infected Sf9 cells; uPA1-48: recombinant yeast; vitronectin: purified from human plasma
Experimental: Vitronectin was purified from human plasma by the method of Yatohgo et al, Cello Struct.and Funct. 13: 281–292 (1988). Purified vitronectin was diluted to 20 μg/ml in PBS containing 1 mM CaCl2 and 0.5 mM MgCl2, dispensed at 50 μl/well into Immulon II wells (Dynatech, Chantilly, Va.), incubated overnight at 4° C. and washed with PBS/BSA. Biotinylated sUPAR was diluted to 20 nM in PBS/BSA, incubated with or without test ligand for 30 minutes at room temperature (22° C.), dispensed at 100 μl/well and incubated for 90 minutes. Wells were then washed and horseradish peroxidase (HRP)-conjugated streptavidin was added at 0.4 μg/ml in PBS/2% BSA for 1 hour followed by washing and addition of 100 μl/well TMB substrate. The color development was stopped with 100 μl of 0.8N H2SO4 and the absorbance at 450 nm measured in a 96 well plate reader (Dynatech, Chantilly, Va.). Antagonistic effects of test ligands were measured as described above except the ligands were incubated with 20 nM biotinylated suPAR in the presence of 20 nM uPA1–48.
In order to analyze the effects of the various peptide ligands on the uPAR:vitronectin interaction, we developed an in vitro ELISA based assay for this interaction, in which biotinylated suPAR and uPA1–48 bind to immobilized, urea purified vitronectin, and the bound sUPAR is detected with HRP conjugated streptavidin. Under the conditions of the assay binding of biotinylated uPAR to vitronectin is strictly dependent on uPA1–48, as shown in FIG. 1.

T2 sequence (Q03405 23-305 limits assumed): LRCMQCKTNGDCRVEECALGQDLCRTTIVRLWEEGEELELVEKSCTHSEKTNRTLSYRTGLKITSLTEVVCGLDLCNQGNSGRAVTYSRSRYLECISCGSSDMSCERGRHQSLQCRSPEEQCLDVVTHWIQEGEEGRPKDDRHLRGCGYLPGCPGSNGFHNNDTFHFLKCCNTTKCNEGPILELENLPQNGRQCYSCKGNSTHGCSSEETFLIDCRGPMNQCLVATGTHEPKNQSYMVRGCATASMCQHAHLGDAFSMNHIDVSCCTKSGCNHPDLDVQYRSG
T3 sequence (Q03405 23-305 limits assumed, one chain of several): as the sequence (Q03405 23-305 limits assumed) above
T1 sequence (Q03405 115-335): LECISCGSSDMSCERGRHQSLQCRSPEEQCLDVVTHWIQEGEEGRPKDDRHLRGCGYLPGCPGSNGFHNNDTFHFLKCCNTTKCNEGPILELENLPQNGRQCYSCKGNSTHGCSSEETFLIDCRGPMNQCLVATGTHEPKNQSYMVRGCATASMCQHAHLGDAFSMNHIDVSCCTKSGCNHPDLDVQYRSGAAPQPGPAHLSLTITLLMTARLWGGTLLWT

Row | % Inhibition 2.5 uM (soluble uPAR [2]) | % Inhibition 5 uM (soluble uPAR [2]) [%] | Compound | other results
1 | 73% | 86 | CSCC[C@H](NC(=O)[C@H](Cc1ccc(O)cc1)NC(=O)CNC(=O)[C@H](CC(C)C)NC(=O)[C@@H](CO)NC(=O)[C@H](CC(C)C)NC(=O)[C@H](Cc1c[nH]cn1)NC(=O)[C@H](Cc1c[nH]cn1)NC(=O)[C@H](Cc1ccc(O)cc1)NC(=O)[C@@H](NC(=O)[C@H](CO)NC(=O)[C@H](CCC(=O)O)NC(=O)[C@H](C)N)[C@@H](C)O)C(=O)N[C@@H](Cc1ccc(O)cc1)C(=O)N[C@H](C(=O)N[C@@H](CC(C)C)C(=O)N[C@@H](CC(N)=O)C(N)=O)[C@@H](C)O [Analog 54] (H-AESTYHHL[dS]LGYMYTLN-NH2) | –
2 | 41% | 57 | CSCC[C@H](NC(=O)[C@H](Cc1ccc(O)cc1)NC(=O)CNC(=O)[C@H](CC(C)C)NC(=O)[C@H](CO)NC(=O)[C@H](CC(C)C)NC(=O)[C@H](Cc1c[nH]cn1)NC(=O)[C@H](Cc1c[nH]cn1)NC(=O)[C@H](Cc1ccc(O)cc1)NC(=O)[C@@H](NC(=O)[C@H](CO)NC(=O)[C@H](CCC(=O)O)NC(=O)[C@@H](C)N)[C@@H](C)O)C(=O)N[C@@H](Cc1ccc(O)cc1)C(=O)N[C@H](C(=O)N[C@@H](CC(C)C)C(=O)N[C@@H](CC(N)=O)C(N)=O)[C@@H](C)O [Analog 46] (H-[dA]ESTYHHLSLGYMYTLN-NH2) | –
3 | 32% | 55 | CSCC[C@H](NC(=O)[C@H](Cc1ccc(O)cc1)NC(=O)CNC(=O)[C@H](CC(C)C)NC(=O)[C@H](CO)NC(=O)[C@H](CC(C)C)NC(=O)[C@H](Cc1c[nH]cn1)NC(=O)[C@H](Cc1c[nH]cn1)NC(=O)[C@H](Cc1ccc(O)cc1)NC(=O)[C@@H](NC(=O)[C@H](CO)NC(=O)[C@H](CCC(=O)O)NC(=O)[C@H](C)N)[C@@H](C)O)C(=O)N[C@@H](Cc1ccc(O)cc1)C(=O)N[C@H](C(=O)N[C@@H](CC(C)C)C(=O)N[C@H](CC(N)=O)C(N)=O)[C@@H](C)O [Analog 61] (H-AESTYHHLSLGYMYTL[dN]-NH2) | –
4 | 22% | 75 | CSCC[C@H](NC(=O)[C@H](Cc1ccc(O)cc1)NC(=O)CNC(=O)[C@H](CC(C)C)NC(=O)[C@H](CO)NC(=O)[C@H](CC(C)C)NC(=O)[C@H](Cc1c[nH]cn1)NC(=O)[C@H](Cc1c[nH]cn1)NC(=O)[C@H](Cc1ccc(O)cc1)NC(=O)[C@@H](NC(=O)[C@H](CO)NC(=O)[C@H](CCC(=O)O)NC(=O)[C@H](C)N)[C@@H](C)O)C(=O)N[C@@H](Cc1ccc(O)cc1)C(=O)N[C@H](C(=O)N[C@H](CC(C)C)C(=O)N[C@@H](CC(N)=O)C(N)=O)[C@@H](C)O [Analog 60] (H-AESTYHHLSLGYMYT[dL]N-NH2) | –

The next lines start with the compound.

Row | Compound | % Inhibition 2.5 uM (soluble uPAR [2]) | % Inhibition 5 uM (soluble uPAR [2]) [%] | other results
5 | H-AEFFKLGPNGYVYLHSA-NH2 [peptide 9] | – | – | bacteriophage binding to immobilized D23 versus sUPAR (sUPAR domain 2–3 (D23)): bind equivalently to the D23 fragment and full-length receptor; % Inhibition 2.5 uM (soluble uPAR [1]; 2500.0): 59%; % Inhibition 5 uM (soluble uPAR [1]; 5000.0): 71%
6 | CSCC[C@H](NC(=O)[C@H](Cc1ccc(O)cc1)NC(=O)CNC(=O)[C@H](CC(C)C)NC(=O)[C@H](CO)NC(=O)[C@H](CC(C)C)NC(=O)[C@H](Cc1c[nH]cn1)NC(=O)[C@H](Cc1c[nH]cn1)NC(=O)[C@H](Cc1ccc2ccccc2c1)NC(=O)[C@@H](NC(=O)[C@H](CO)NC(=O)[C@H](CCC(=O)O)NC(=O)[C@H](C)N)[C@@H](C)O)C(=O)N[C@@H](Cc1ccc(O)cc1)C(=O)N[C@H](C(=O)N[C@@H](CC(C)C)C(=O)N[C@@H](CC(N)=O)C(N)=O)[C@@H](C)O [Analog 36] (H-AEST[2Nal]HHLSLGYMYTLN-NH2) | 61% | 78 | –
7 | CCCC[C@H](NC(=O)[C@H](Cc1ccc(O)cc1)NC(=O)CNC(=O)[C@H](CC(C)C)NC(=O)[C@H](CO)NC(=O)[C@H](CC(C)C)NC(=O)[C@H](Cc1c[nH]cn1)NC(=O)[C@H](Cc1c[nH]cn1)NC(=O)[C@H](Cc1ccc(O)cc1)NC(=O)[C@@H](NC(=O)[C@H](CO)NC(=O)[C@H](CCC(=O)O)NC(=O)[C@H](C)N)[C@@H](C)O)C(=O)N[C@@H](Cc1ccc(O)cc1)C(=O)N[C@H](C(=O)N[C@@H](CC(C)C)C(=O)N[C@@H](CC(N)=O)C(N)=O)[C@@H](C)O [Analog 44, AESTYHHLSLGYJYTLN] (H-AESTYHHLSLGY[Nle]YTLN-NH2) | 84* % | 91 | –
8 | CSCC[C@H](NC(=O)[C@H](Cc1ccc(O)cc1)NC(=O)CNC(=O)[C@H](CC(C)C)NC(=O)[C@H](CO)NC(=O)[C@H](CC(C)C)NC(=O)[C@H](Cc1c[nH]cn1)NC(=O)[C@H](Cc1c[nH]cn1)NC(=O)[C@H](Cc1cccc2ccccc12)NC(=O)[C@@H](NC(=O)[C@H](CO)NC(=O)[C@H](CCC(=O)O)NC(=O)[C@H](C)N)[C@@H](C)O)C(=O)N[C@@H](Cc1ccc(O)cc1)C(=O)N[C@H](C(=O)N[C@@H](CC(C)C)C(=O)N[C@@H](CC(N)=O)C(N)=O)[C@@H](C)O [Analog 35, AESTXHHLSLGYMYTLN] (H-AEST[1Nal]HHLSLGYMYTLN-NH2) | 70% | 94 | –
9 | H-AESTFHHLSLGYMYTLN-NH2 [Analog 34] | 38% | 47 | –
10 | H-AESTYHHLSLGYVYTLN-NH2 [Analog 43] | 63% | 82 | –
11 | somatomedin B domain of vitronectin: recombinant somatomedin B domain of vitronectin (DQESCKGRCTEGFNVDKKCQCDELCSYYQSCCTDYTAECKPQVT) | – | – | effect on binding of uPA1–48:uPAR complexes to vitronectin [3]: blocked
12 | CC[C@H](NC(=O)[C@H](Cc1ccc(O)cc1)NC(=O)CNC(=O)[C@H](CC(C)C)NC(=O)[C@H](CO)NC(=O)[C@H](CC(C)C)NC(=O)[C@H](Cc1c[nH]cn1)NC(=O)[C@H](Cc1c[nH]cn1)NC(=O)[C@H](Cc1ccc(O)cc1)NC(=O)[C@@H](NC(=O)[C@H](CO)NC(=O)[C@H](CCC(=O)O)NC(=O)[C@H](C)N)[C@@H](C)O)C(=O)N[C@@H](Cc1ccc(O)cc1)C(=O)N[C@H](C(=O)N[C@@H](CC(C)C)C(=O)N[C@@H](CC(N)=O)C(N)=O)[C@@H](C)O [Analog 45] (H-AESTYHHLSLGY[Abu]YTLN-NH2) | 31% | 59 | –
